According to patent US20230414794A1, “PSMA INHIBITOR, COMPOUND AND APPLICATION” (PEKING UNIVERSITY FIRST HOSPITAL, priority 2019, published 2023):

Columns and labels:
PSMA = PSMA (Homo sapiens (Human), UniProt Q04609); test: PSMA inhibitory activity (NAAG hydrolysis by LNCaP cell lysate, Amplex Red glutamate detection); type: biochemical; details: for Ki / inhibition at 6.667 µM: LNCaP cell lysate; for Ki: NAAG substrate, Ki by Cheng-Prusoff equation; for inhibition at 6.667 µM: inhibitor 6667 nM, read-out: % inhibited at 6667 nM
PSMA, sequence (Q04609 whole entry): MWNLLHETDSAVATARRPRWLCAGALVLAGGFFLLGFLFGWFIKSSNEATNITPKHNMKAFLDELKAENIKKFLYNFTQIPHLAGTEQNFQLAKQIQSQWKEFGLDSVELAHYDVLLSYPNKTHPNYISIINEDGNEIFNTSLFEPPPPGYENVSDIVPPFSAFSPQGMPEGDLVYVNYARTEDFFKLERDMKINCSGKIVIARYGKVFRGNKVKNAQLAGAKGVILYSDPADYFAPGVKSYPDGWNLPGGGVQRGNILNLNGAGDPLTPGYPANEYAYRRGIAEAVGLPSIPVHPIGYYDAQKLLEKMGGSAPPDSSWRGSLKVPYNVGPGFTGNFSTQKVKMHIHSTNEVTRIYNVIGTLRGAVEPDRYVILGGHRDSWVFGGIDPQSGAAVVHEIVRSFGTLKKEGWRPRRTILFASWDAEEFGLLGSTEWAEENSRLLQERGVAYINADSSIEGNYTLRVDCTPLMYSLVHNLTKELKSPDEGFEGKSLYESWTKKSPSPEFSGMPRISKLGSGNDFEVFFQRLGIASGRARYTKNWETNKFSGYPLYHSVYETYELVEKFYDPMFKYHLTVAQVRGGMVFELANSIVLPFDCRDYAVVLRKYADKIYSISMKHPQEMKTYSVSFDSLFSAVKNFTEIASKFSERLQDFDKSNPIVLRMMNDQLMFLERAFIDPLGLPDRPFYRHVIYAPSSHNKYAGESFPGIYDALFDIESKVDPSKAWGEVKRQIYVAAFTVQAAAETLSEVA
Procedure: A LNCaP cell lysate (total protein concentration: 125 μg/mL) was prepared in advance. 25 μL of the cell lysate, 25 μL of the inhibitor and 25 μL of N-acetylaspartylglutamate (NAAG, 16 μM) were incubated together in a 96-well plate (Costar Assay Plate, Cat#. 3925) at 37° C. for 180 min. The amount of glutamate released by hydrolysis of NAAG was measured using an Amplex Red Glutamic Acid Kit (Molecular Probes Inc., Eugene, OR) working solution (50 μL) after incubation for 30 min Fluorescence were measured using Synergy H1 Hybrid Reader (BioTek Instruments, Inc., Winooski, Vermont) at excitation wavelength of 530 nm and emission wavelength of 590 nm. An inhibition curve was plotted by a semi-logarithmic method. […] The inhibition constant (Ki) of the enzyme was calculated by the Cheng-Prusof equation. Each experiment was performed in triplicates. Data analysis was performed by GraphPad Prism 7.0 (GraphPad Software, San Diego, California).

PSMA (LNCaP cells) = PSMA (LNCaP cells) (Homo sapiens (Human), UniProt Q04609); test: Fluorescence microscopy imaging of LNCaP cells stained with Compound S1, with or without Compound S2; type: cell-based; details: room temperature
PSMA (LNCaP cells), sequence (Q04609 whole entry): as above
Procedure: LNCaP cells were diluted to 1×10^6/mL with RPMI-1640 (containing 10% FBS). For staining, the cells and 2 μM Compound S1 were incubated at room temperature for 1 h. For the inhibition group, the cells were incubated with 2 μM Compound S1 and 200 μM Compound S2 together for 1 h at room temperature. After the staining was completed, excess dye compound was removed by centrifugation, and the cells were resuspended in cold PBS and blown well, 100 μL of which was taken and added to a 96-well plate, left for several minutes and then observed under a fluorescence microscope.

[1] = target: PSMA (LNCaP cells with high PSMA expression) (Homo sapiens (Human), UniProt Q04609); test: Flow cytometric analysis: inhibition of YC-36 staining of LNCaP cells; type: cell-based; details: 2 μM YC-36 plus 200 μM Compound S2 (100×), 1 h, room temperature, flow cytometry
PSMA (LNCaP cells with high PSMA expression), sequence (Q04609 whole entry): as above
Procedure: LNCaP cells were diluted to 1×10^6/mL with RPMI-1640 (containing 10% FBS). For staining, the cells and 2 μM YC-36 were incubated at room temperature for 1 h, and then washed twice with the same medium. The cells were resuspended in cold PBS. For the inhibition group, the cells were incubated with 2 μM YC-36 and 200 μM Compound S2 for 1 hour at room temperature. The cells were analyzed by BD Influs Cell Sorter (BD Biosciences, San Jose, CA95131, USA) flow cytometry and the FlowJo software, and the results are shown in FIG. 6. The black area (left in Panel A) represents the LNCaP cells without dye, and the blue area (right in Panel A) represents the LNCaP cells after co-incubation with YC-36.
YC-36 is a fluorescent molecule having a high affinity for PSMA, and can selectively stain cells with high PSMA expression (Kiess, A.P., et al., Auger Radiopharmaceutical Therapy Targeting Prostate […]. J Nucl Med, 2015. 56(9): p. 1401-1407).

Ki (PSMA) [nM] | inhibition at 6.667 µM (PSMA) [%] | affinity relative to ZJ-43 (PSMA; fold higher affinity than ZJ-43, from Ki in Table 1) [times] | inhibition of staining of LNCaP cells by the blue dye Compound S1 (PSMA (LNCaP cells); 2 μM Compound S1 plus 200 μM Compound S2 (100×), 1 h) | inhibition of staining of LNCaP cells by YC-36 [1] | Structure (SMILES) | staining of LNCaP cells (PSMA (LNCaP cells); 2 μM Compound S1, 1 h)
> 1000 | 10.7 |  |  |  | CC(C)C[C@H](NC(=O)N[C@@H](CNC(=O)c1ncc[nH]1)C(=O)O)C(=O)O [Comparative Compound DS1, (S)-2-(3-((S)-1-carboxy-2-(1H-imidazole-2-carboxamido)ethyl)ureido)-4-methylpentanoic acid] | 
> 1000 | 20.6 |  |  |  | CC(C)C[C@H](NC(=O)N[C@@H](CNC(=O)c1c[nH]cn1)C(=O)O)C(=O)O [Comparative Compound DS2, (S)-2-(3-((S)-1-carboxy-2-(1H-imidazole-4-carboxamido)ethyl)ureido)-4-methylpentanoic acid] | 
> 1000 | 47.3 |  |  |  | CC(C)C[C@H](NC(=O)N[C@@H](CNC(=O)c1c[nH]nn1)C(=O)O)C(=O)O [Comparative Compound DS3, (S)-2-(3-((S)-1-carboxy-2-(1H-1,2,3-triazole-4-carboxamido)ethyl)ureido)-4-methylpentanoic acid] | 
5.96 |  |  |  |  | Nc1ccc2c(CC(=O)NCCCC[C@H](NC(=O)N[C@@H](CNC(=O)C(=O)O)C(=O)O)C(=O)O)cc(=O)oc2c1 [Compound S1, (45,85)-15-(7-amino-2-oxo-2H-chromen-4-yl)-1,6,14-trioxo-2,5,7,13-tetraazapentadecane-1,4,8-tricarboxylic acid] | stained the cells by specific binding to PSMA
0.08 |  | 44 | significantly inhibit | significantly inhibited | O=C(N[C@@H](CCCCNC(=O)c1ccc(I)cc1)C(=O)O)N[C@@H](CNC(=O)C(=O)O)C(=O)O [Compound S2, (45,85)-14-(4-iodophenyl)-1,6,14-trioxo-2,5,7,13-tetraazatetradecane-1,4,8-tric arboxylic acid] | 
5.69 |  |  |  |  | CC(C)C[C@H](NC(=O)N[C@@H](CNC(=O)C(=O)O)C(=O)O)C(=O)O [Compound S3, (S)-2-(3-((S)-1-carboxy-2-(carboxyformamido)ethyl)ureido)-4-methylpentanoic acid] | 
